Source: patent US20220280507A1, “USES OF 5-METHYLTETRAHYDROFOLATE AND ITS COMPOSITION” (Lianyungang Jinkang Hexin Pharmaceutical Co., Ltd., priority 2019, published 2022)
Read-outs that look alike come from different tables or passages of the source.

Experiments:
[1] = tested on: mice after drinking; conditions: n=10
Protocol: Experiment 8 Tail Suspension Test and Swimming Test in Mice after Drinking
Clean-grade male Kunming mice, weighing 18-22 g, were chosen. The test was carried out at 23° C. with a humidity of 50%. The mice ate and drank freely, adapting to the environment for 5 days before the test. Then they were divided into 5 groups: model group, normal group, high-dose 5-MTHF-Ca group, medium-dose 5-MTHF-Ca group and low-dose 5-MTHF-Ca group (16 mg·Kg−1, 8mg·Kg−1, 4mg·Kg−1),
10 mice in each group. The model group was given (by gavage) Erguotou (batch number: 201603092, specification: 2L, place of origin: Beijing Shunxin Agriculture Co., Ltd.) at 18 ml·Kg−1, and calcium folate (Lianyungang Jinkang Hexin Pharmaceutical Co., Ltd.). The high-dose, medium-dose and low-dose groups were also given the solution containing Erguotou and calcium folate. The mice were tested after 24 h. The tail suspension test is carried out by fixing the tail of a mouse so that it is suspended head down in a state of desperately struggling to escape but unable to escape. After a period of time, record the immobility time of the mouse in a desperate state in this environment to observe the therapeutic effect after administration. The head of the mouse suspended upside down was 10 cm from the bottom of the box, and two mice were suspended at a time, which were separated by a partition to avoid collision. The mice were suspended for 10 min, and the accumulated immobility time of the suspended mice was counted within the latter 5 min. The results are as follows:
The mice were placed in a plastic swimming box with a length of 50 cm, a width of 40 cm and a height of 40 cm. The time was counted for 10 min after the mice were placed in the water. The accumulated immobility time of the mice with only slight limb movements and no struggling, and remaining afloat was recorded within the latter 5 min.

[2] = Alcoholic fatty liver model, body weight during administration period; type: in vivo, SD rats; conditions: liquor model
Protocol: According to their weight, they were randomly divided into vehicle control group (purified water, ig), model control group (liquor, 10 ml·Kg−1), positive control group (bicyclol, 50 mg·Kg−1, ig), folic acid calcium salt high-dose group (4 mg·Kg−1), folic acid calcium salt medium-dose group (2 mg·Kg−1), folic acid calcium salt low-dose group (1 mg·Kg−1), in half female and half male, and 16 rats in each group. Purified water was used as a negative control, and bicyclol (place of origin: Beijing Xiehe Pharmaceutical Factory, specification: 25 mg/tablet, batch number: H20040467) was used as a positive control drug. Route of administration: all were administered by oral gavage. Dosage of administration: 1 mg·Kg−1, 2 mg·Kg−1, and 4 mg·Kg−1. Frequency of administration: once a day for 60 consecutive days.
Method of administration: administration started at prescribed doses on the day of modeling for 60 consecutive days and ended at the 60th day. At the same time, rats in each group were weighed every other week during administration period to monitor their body weight changes. On the 61st day, rats were dissected and serum was collected for determination of triglyceride (TG), total cholesterol (TC), malondialdehyde (MDA), superoxide dismutase (SOD) and liver histopathologic examination. The brain tissue of rats was taken out, and hippocampus tissue was separated on ice plate, prepared to homogenate with a mass fraction of 10% with purified water, then the homogenate was centrifuged to obtain supernatant. ELISA was used to detect the levels of inflammatory factors TNF-α and IL-1β in hippocampus tissue with continuous spectrum scanning microplate reader.

[3] = tested on: alcoholic steatohepatitis; conditions: 4 mg·Kg−1 daily
Protocol: Experiment 12 Effect of 5-Methyltetrahydrofolate on Intestine Induced by Chronic Alcohol
96 SPF-grade SD rats, half female and half male, were chosen with an average weight of 176-220 g at the beginning of the experiment, and randomly divided into vehicle control group (glucose, 10 g·Kg−1) and model control group (liquor, 6 g·Kg−1), 5-methyltetrahydrofolate calcium group (folic acid, 4 mg·Kg−1, glucose, 10 g·Kg−1), half female and half, 16 rats in each group. […] The day on which the dose of alcohol reached 6g·Kg−1 was defined as the first day of modeling. The intestinal permeability of rats was measured at Weeks 2 and 8, then 5 rats were sacrificed at random, blood and liver tissues were taken.
8 weeks later, rats in the remaining groups received fecal microbiota transplantation from patients with alcoholic steatohepatitis, and were sacrificed at Week 10, then blood and liver tissues were taken.
60 g of stools were collected from patients with alcoholic steatohepatitis, mixed with 300 mL of normal saline and filtered, and the bacteria solution was stored in an anaerobic bag at 4° C. for later use. After 8 weeks, the remaining rats in all groups were anesthetized with ether, and catheter was used to slowly inject the bacteria solution (2 mL) into their colon, and the rats continued to be fed with the same doses the next day. At Week 10, all rats were sacrificed, liver tissues were stained with H&E and sectioned for disease assessment. At least three different sections of each rat were studied to reasonably assess liver lesions. In order to reasonably assess fatty degeneration, necrosis, inflammation, and fibrosis of liver, liver lesions were graded into different degrees. The proportion of fatty liver cells was <50%, 50-75% and >75%, respectively, corresponding to the severity of fatty degeneration. Focal necrosis was also quantified (number of necrotic foci/mm2), and dense inflammatory infiltrates were also graded. Alcoholic steatohepatitis (ASH) is defined as the presence of inflammatory cell infiltration, spot necrosis and stem cell necrosis in the liver.

[4] = Week 10 after fecal microbiota transplantation, n = 6

**Q.** With 5-methyltetrahydrofolate calcium as the compound, how does the Swimming immobility time ([1]; high dose 16 mg·Kg−1 with Erguotou 18 ml·Kg−1, tested after 24 h) read?
**A.** 104.64 ± 5.24 S

**Q.** What about the Swimming immobility time ([1]; low dose 4 mg·Kg−1 with Erguotou 18 ml·Kg−1, tested after 24 h) of the same compound?
**A.** 123.56 ± 3.64 S

**Q.** And the Swimming immobility time ([1]; medium dose 8 mg·Kg−1 with Erguotou 18 ml·Kg−1, tested after 24 h)?
**A.** 110.42 ± 2.64 S

**Q.** And the Body weight ([2]; 1 mg·kg−1·d−1 ig, Week 0, n=16)?
**A.** 195.64 g

**Q.** What about the Body weight ([2]; 1 mg·kg−1·d−1 ig, Week 1, n=16) of the same compound?
**A.** 215.16 g

**Q.** And the Body weight ([2]; 1 mg·kg−1·d−1 ig, Week 2, n=16)?
**A.** 282.30 g

**Q.** And the Body weight ([2]; 1 mg·kg−1·d−1 ig, Week 3, n=16)?
**A.** 299.34 g

**Q.** What about the Body weight ([2]; 1 mg·kg−1·d−1 ig, Week 4, n=16) of the same compound?
**A.** 312.99 g

**Q.** And the Body weight ([2]; 1 mg·kg−1·d−1 ig, Week 5, n=16)?
**A.** 317.48 g

**Q.** What about the Body weight ([2]; 1 mg·kg−1·d−1 ig, Week 6, n=16) of the same compound?
**A.** 334.47 g

**Q.** What about the Body weight ([2]; 1 mg·kg−1·d−1 ig, Week 7, n=16) of the same compound?
**A.** 355.89 g

**Q.** What about the Body weight ([2]; 1 mg·kg−1·d−1 ig, Week 8, n=16) of the same compound?
**A.** 375.85 g

**Q.** What about the Body weight ([2]; 2 mg·kg−1·d−1 ig, Week 0, n=16) of the same compound?
**A.** 190.85 g

**Q.** What about the Body weight ([2]; 2 mg·kg−1·d−1 ig, Week 1, n=16) of the same compound?
**A.** 219.44 g

**Q.** What about the Body weight ([2]; 2 mg·kg−1·d−1 ig, Week 2, n=16) of the same compound?
**A.** 274.69 g

**Q.** And the Body weight ([2]; 2 mg·kg−1·d−1 ig, Week 3, n=16)?
**A.** 293.12 g

**Q.** What about the Body weight ([2]; 2 mg·kg−1·d−1 ig, Week 4, n=16) of the same compound?
**A.** 321.78 g

**Q.** What about the Body weight ([2]; 2 mg·kg−1·d−1 ig, Week 5, n=16) of the same compound?
**A.** 328.10 g

**Q.** And the Body weight ([2]; 2 mg·kg−1·d−1 ig, Week 6, n=16)?
**A.** 345.05 g

**Q.** What about the Body weight ([2]; 2 mg·kg−1·d−1 ig, Week 7, n=16) of the same compound?
**A.** 352.90 g

**Q.** What about the Body weight ([2]; 2 mg·kg−1·d−1 ig, Week 8, n=16) of the same compound?
**A.** 383.69 g

**Q.** And the Body weight ([2]; 4 mg·kg−1·d−1 ig, Week 0, n=16)?
**A.** 196.33 g

**Q.** What about the Body weight ([2]; 4 mg·kg−1·d−1 ig, Week 1, n=16) of the same compound?
**A.** 218.24 g

**Q.** And the Body weight ([2]; 4 mg·kg−1·d−1 ig, Week 2, n=16)?
**A.** 285.54 g

**Q.** And the Body weight ([2]; 4 mg·kg−1·d−1 ig, Week 3, n=16)?
**A.** 296.05 g

**Q.** And the Body weight ([2]; 4 mg·kg−1·d−1 ig, Week 4, n=16)?
**A.** 307.43 g

**Q.** And the Body weight ([2]; 4 mg·kg−1·d−1 ig, Week 5, n=16)?
**A.** 321.49 g

**Q.** And the Body weight ([2]; 4 mg·kg−1·d−1 ig, Week 6, n=16)?
**A.** 349.47 g

**Q.** And the Body weight ([2]; 4 mg·kg−1·d−1 ig, Week 7, n=16)?
**A.** 372.49 g

**Q.** And the Body weight ([2]; 4 mg·kg−1·d−1 ig, Week 8, n=16)?
**A.** 392.02 g

**Q.** Which “Case percentage: fatty degeneration, percentage of fatty liver cells 50-75%” value ([3]; Week 8, n = 5) does the source give for `CN1c2c([nH]c(N)nc2=O)NCC1CNc1ccc(C(=O)N[C@@H](CCC(=O)O)C(=O)O)cc1` (stereo partly drawn) [5-methyltetrahydrofolate, N-[4-[[(2-amino-1,4,5,6,7,8-hexahydro-4-oxo-5-methyl-(6S), -(6R), and (6R,S)-pteridyl)methyl)amino)toluoyl-glutamic acid] here?
**A.** 20%

**Q.** And the “Case percentage: fatty degeneration, percentage of fatty liver cells < 50%” value ([3]; Week 8, n = 5)?
**A.** 80%

**Q.** And the “Case percentage: fatty degeneration, percentage of fatty liver cells > 75%” value ([3]; Week 8, n = 5)?
**A.** 0%

**Q.** And the “Case percentage: inflammatory foci 1-4 pcs/mm^2” value ([3]; Week 8, n = 5)?
**A.** 0%

**Q.** What about the “Case percentage: inflammatory foci <1 pc/mm^2” value ([3]; Week 8, n = 5) of the same compound?
**A.** 100%

**Q.** What about the “Case percentage: inflammatory foci >4 pcs/mm^2” value ([3]; Week 8, n = 5) of the same compound?
**A.** 0%

**Q.** And the “Case percentage: liver fibrosis” value ([3]; Week 8, n = 5)?
**A.** 0%

**Q.** And the “Case percentage: necrosis foci 1-3 pcs/mm^2” value ([3]; Week 8, n = 5)?
**A.** 0%

**Q.** What about the “Case percentage: necrosis foci <1 pc/mm^2” value ([3]; Week 8, n = 5) of the same compound?
**A.** 100%

**Q.** What about the “Case percentage: necrosis foci >3 pcs/mm^2” value ([3]; Week 8, n = 5) of the same compound?
**A.** 0%

**Q.** And the “Case percentage: fatty degeneration, percentage of fatty liver cells 50-75%” value [3, 4]?
**A.** 33.3%

**Q.** What about the “Case percentage: fatty degeneration, percentage of fatty liver cells < 50%” value [3, 4] of the same compound?
**A.** 66.7%

**Q.** And the “Case percentage: fatty degeneration, percentage of fatty liver cells > 75%” value [3, 4]?
**A.** 0%

**Q.** What about the “Case percentage: inflammatory foci 1-4 pcs/mm^2” value [3, 4] of the same compound?
**A.** 0%

**Q.** What about the “Case percentage: inflammatory foci <1 pc/mm^2” value [3, 4] of the same compound?
**A.** 100%

**Q.** And the “Case percentage: inflammatory foci >4 pcs/mm^2” value [3, 4]?
**A.** 0%

**Q.** And the “Case percentage: liver fibrosis” value [3, 4]?
**A.** 0%

**Q.** What about the “Case percentage: necrosis foci 1-3 pcs/mm^2” value [3, 4] of the same compound?
**A.** 0%

**Q.** And the “Case percentage: necrosis foci <1 pc/mm^2” value [3, 4]?
**A.** 100%

**Q.** What about the “Case percentage: necrosis foci >3 pcs/mm^2” value [3, 4] of the same compound?
**A.** 0%
